# Measured values: patent publication US20260184702A1, “SYNTHESIS, PHARMACOLOGY AND USE OF NEW WATER-SOLUBLE AND SELECTIVE FMS-LIKE TYROSINE KINASE3 (FLT3) INHIBITORS” (Universität Regensburg, priority 2022, published 2026)
# “Also recorded” adds a separate entry of the source. Where a name gives a salt, the structure may show the parent alone.
# Assays:
# [1] = Solubility test by UV-Vis spectroscopy of saturated solutions; type: physicochemical; settings: saturated solution; for Solubility Water: ultrapure water
# Method: All UV-Vis measurements were carried out with an Agilent Cary 60 UV-Vis 2.00 between 800-200 nm. The absorbance was measured with a scan rate of 300.0 nm/min, a data interval of 0.50 nm and an UV-Vis Average Time of 0.10 s. For all measurements a cuvette with 10 mm light path was used. A calibration curve was plotted from several different concentrations and the solubility of the respective compound was determined by measuring the absorbance of a diluted saturated solution. As a blank curve a mixture of ultrapure water and ethanol in a ratio of 1:1 or 5:95 was recorded. For the calibration curve a 100 μM or a 10 μM solution of the compound in an ultrapure water:ethanol (1:1) or (5:95)-mixture was prepared and diluted to obtain at least 6 concentrations. […] The supernatant was taken using a syringe and filtered through a syringe filter (RC Membrane). The saturated solution was diluted with ultrapure water and ethanol to obtain an appropriate concentration in a water:ethanol (1:1) or (5:95)-mixture. The long wave absorbance maximum was used for determination of the solubility (mean values, determination in triplicate). […] By plotting the concentration of the solution against the absorbance values at the previously determined wavelength maximum a calibration curve was obtained (FIG. 1B).
# [2] = test system: EOL-1 (acute myeloid eosinophilic leukemia); assay: CellTiter-Blue Cell Viability Assay, EOL-1; type: cell-based; settings: Homo sapiens, EOL1
# Method: (§1) EOL-1 (acute myeloid eosinophilic leukemia), MOLM-13 (acute myeloid leukemia), MONO-MAC-1 (acute monocytic leukemia), and MONO-MVAC-6 (acute monocytic leukemia). In vitro screening was performed by Charles River using the CellTiter-Blue® Cell Viability Assay.
# [3] = test system: MONO-MAC-6 (acute monocytic leukemia); assay: CellTiter-Blue Cell Viability Assay, MONO-MAC-6; type: cell-based; settings: Homo sapiens
# Method: as §1
# [4] = test system: MOLM-13 (acute myeloid leukemia); assay: CellTiter-Blue Cell Viability Assay, MOLM-13; type: cell-based; settings: Homo sapiens
# Method: as §1
# [5] = test system: four hematological cell lines; assay: CellTiter-Blue Cell Viability Assay, all four hematological cell lines; type: cell-based; settings: geometric mean over EOL-1, MOLM-13, MONO-MAC-1, MONO-MAC-6; read-out: IC50 [μM] Geomean
# Method: as §1
# human FLT3-ITD = molecular target: T1, human FLT3-ITD (Homo sapiens, UniProt P36888); assay: Cellular FLT3-ITD phosphorylation assay in MEF-FLT3-ITD cells (sandwich-ELISA); type: cell-based; settings: 90 min compound, FLT3-ligand stimulation, read-out: IC50 FLT3-ITD [nM] in phosphorylation assay
# T1 sequence (P36888 1-993): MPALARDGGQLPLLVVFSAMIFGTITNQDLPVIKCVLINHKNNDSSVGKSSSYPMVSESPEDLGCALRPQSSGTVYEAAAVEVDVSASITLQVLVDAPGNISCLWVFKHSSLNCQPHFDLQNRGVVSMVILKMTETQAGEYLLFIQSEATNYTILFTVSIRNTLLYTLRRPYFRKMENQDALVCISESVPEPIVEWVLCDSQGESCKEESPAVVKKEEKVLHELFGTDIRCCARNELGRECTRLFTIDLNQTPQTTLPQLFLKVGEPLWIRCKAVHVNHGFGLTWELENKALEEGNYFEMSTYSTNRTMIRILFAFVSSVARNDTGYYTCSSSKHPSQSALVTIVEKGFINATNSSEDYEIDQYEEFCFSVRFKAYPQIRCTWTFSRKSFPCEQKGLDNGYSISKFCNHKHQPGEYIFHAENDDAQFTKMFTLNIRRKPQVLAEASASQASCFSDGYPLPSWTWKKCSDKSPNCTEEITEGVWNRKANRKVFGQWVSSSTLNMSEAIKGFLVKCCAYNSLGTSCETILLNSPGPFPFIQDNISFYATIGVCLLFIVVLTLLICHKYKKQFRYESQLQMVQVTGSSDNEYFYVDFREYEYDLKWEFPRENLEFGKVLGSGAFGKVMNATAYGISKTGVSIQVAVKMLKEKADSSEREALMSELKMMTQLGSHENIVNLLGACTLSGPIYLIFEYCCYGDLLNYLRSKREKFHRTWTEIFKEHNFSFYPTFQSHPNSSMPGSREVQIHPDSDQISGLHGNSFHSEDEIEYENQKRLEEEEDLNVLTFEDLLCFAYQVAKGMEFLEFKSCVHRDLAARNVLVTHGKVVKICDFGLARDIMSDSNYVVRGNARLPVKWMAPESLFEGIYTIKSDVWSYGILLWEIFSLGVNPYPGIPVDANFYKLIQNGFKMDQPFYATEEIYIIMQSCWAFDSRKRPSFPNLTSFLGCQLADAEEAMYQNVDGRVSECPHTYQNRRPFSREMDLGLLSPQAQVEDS
# Method: In the cellular FLT3-ITD phosphorylation assay the murine embryonal fibroblast cell line (MEF) was used, which expresses a high level of exogenously introduced full-length human FLT3-ITD. Stimulation of these cells with human FLT3-Ligand results in receptor tyrosine autophosphorylation. MEF-FLT3-ITD cells were plated in DMEM supplemented with […] in multiwell cell culture plates. After serum-starvation overnight cells were incubated with compounds (90 min at 37° C.) in serum-free medium. […] For stimulation, cells were treated with 50 ng/ml FLT3-ligand for 5 min at room temperature. After cell lysis quantification of receptor autophosphorylation was assessed in 96 well plates via sandwich-ELISA using a kinase specific capture antibody and an antiphosphotyrosine detection antibody.
# c-KIT = molecular target: T2, c-KIT (Homo sapiens, UniProt P10721); assay: Cellular c-KIT phosphorylation assay in Mo7e cells (sandwich-ELISA); type: cell-based; settings: Mo7e cells, 90 min compound, SCF stimulation; read-out: IC50 [nM] inhibition of c-KIT in phosphorylation assay
# T2 construct: expresses endogenously a high level of wild-type c-KIT; endogenous in cells; host or cells: Mo7e (human acute megakaryoblastic leukemia)
# T2 sequence (P10721 26-976): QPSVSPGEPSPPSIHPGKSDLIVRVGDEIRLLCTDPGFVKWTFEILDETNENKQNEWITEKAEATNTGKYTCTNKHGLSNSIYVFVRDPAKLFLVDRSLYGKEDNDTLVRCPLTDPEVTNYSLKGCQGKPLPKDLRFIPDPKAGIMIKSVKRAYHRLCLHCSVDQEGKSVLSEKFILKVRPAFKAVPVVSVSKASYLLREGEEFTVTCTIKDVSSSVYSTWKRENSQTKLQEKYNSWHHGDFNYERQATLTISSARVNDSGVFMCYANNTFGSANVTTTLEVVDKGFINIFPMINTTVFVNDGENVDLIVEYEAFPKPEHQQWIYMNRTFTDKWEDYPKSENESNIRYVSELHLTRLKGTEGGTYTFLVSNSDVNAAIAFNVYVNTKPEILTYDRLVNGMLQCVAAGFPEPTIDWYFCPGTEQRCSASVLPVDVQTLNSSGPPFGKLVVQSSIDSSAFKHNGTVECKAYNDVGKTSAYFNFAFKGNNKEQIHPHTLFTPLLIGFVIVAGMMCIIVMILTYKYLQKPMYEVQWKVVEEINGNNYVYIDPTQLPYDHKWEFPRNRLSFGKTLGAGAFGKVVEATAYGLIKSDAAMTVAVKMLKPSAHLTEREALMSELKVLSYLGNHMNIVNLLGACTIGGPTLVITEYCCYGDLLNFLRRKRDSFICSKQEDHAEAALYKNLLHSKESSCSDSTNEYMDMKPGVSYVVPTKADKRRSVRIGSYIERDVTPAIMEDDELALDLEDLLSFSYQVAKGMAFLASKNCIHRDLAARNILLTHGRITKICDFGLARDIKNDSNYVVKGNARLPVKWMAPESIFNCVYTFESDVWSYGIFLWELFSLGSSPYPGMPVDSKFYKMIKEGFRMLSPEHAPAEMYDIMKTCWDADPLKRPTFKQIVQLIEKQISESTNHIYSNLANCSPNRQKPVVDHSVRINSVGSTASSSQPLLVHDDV
# Method: In the cellular c-KIT phosphorylation assay the human acute megakaryoblastic leukemia cell line Mo7e was used, which expresses endogenously a high level of wild-type c-KIT. Stimulation of these cells with human stem cell factor (SCF) results in receptor tyrosine autophosphorylation. Mo7e cells were plated in RPMI supplemented with 20% FCS and 10 ng/ml GM-CSF in multiwell cell culture plates. After serum- and growth factor-starvation overnight cells were incubated with compounds (90 min at 37° C.) in serum-free medium. […] For stimulation, cells were treated with 100 ng/ml SCF for 3 min at room temperature. After cell lysis quantification of receptor autophosphorylation was assessed in 96 well plates via sandwich-ELISA using a kinase specific capture antibody and an anti-phosphotyrosine detection antibody.
# [6] = test system: MONO-MAC-1 (acute monocytic leukemia); assay: CellTiter-Blue Cell Viability Assay, MONO-MAC-1; type: cell-based
# Method: as §1
# [7] = Solubility test by UV-Vis spectroscopy of saturated solutions; type: physicochemical; settings: solvent DMSO
# [8] = test system: subcutaneous MV4-11 CDX model; assay: In vivo efficacy study in subcutaneous MV4-11 CDX model in NOD/SCID mice; settings: for number of living subjects, day of study 5 / number of living subjects, day of study 6 / number of living subjects, day of study 8 / number of living subjects, day of study 13 / number of living subjects, day of study 26 / number of living subjects, day of study 36: 5 mice
# [9] = In vivo MTD study in non-tumor bearing NOD/SCID mice
# Method: . Group information and dosing details can be seen in the following Table 7.
# . Acclimatization occurred for at least 14 days. […] Dosing of 34c was done as a solution in deionized water, initiated on day 1 and continued for 5 days. One mouse in the 50 mg/kg po group and one in the 75 mg/kg po group lost more weight than 10% in the dosing phase of the study. The weight loss in the 50 mg/kg group was observed after receiving three doses of 34c and after receiving four doses of 34c in the […]. A dosing break was made until the end of dosing for both mice and after a couple of days during the 10-day observation period both mice regained their weight. The body weight was measured daily for all three oral treatment groups for the 5 days of dosing and the following 10-day observational period. The mean relative body weight of the oral treatment group can be seen in FIG. 2. […] Since this observation was made only after dosing, it can be considered it was not caused by the compound.
structure (smiles),measurement,setting,value
"CN1CCN(Cc2c(O)ccc3[nH]c(C(=O)c4cc5cc(NC(=O)Nc6cc(C(C)(C)C)on6)ccc5o4)cc23)CC1 [Compound 33b, 1-(5-(tert-Butyl)isoxazol-3-yl)-3-(2-(5-hydroxy-4-((4-methylpiperazin-1-yl)methyl)-1H-indole-2-carbonyl)benzofuran-5-yl)urea bis(2,2,2-trifluoroacetate)]",Solubility Ethanol,"[1]; bis(2,2,2-trifluoroacetate)",3630 µg/mL
same,IC50,[2],0.05 nM
same,IC50,[3],0.00431 µM
same,IC50,[4],0.00109 µM
same,IC50,[5],0.00223 µM
same,IC50,human FLT3-ITD,6.9 nM
same,IC50,c-KIT,3.2 nM
same,IC50,[6],0.1 µM
"CN(C)Cc1c(O)ccc2[nH]c(C(=O)c3cc4cc(NC(=O)Nc5cc(C(C)(C)C)on5)ccc4o3)cc12 [Compound 34b, 1-(5-tert-Butylisoxazol-3-yl)-3-(2-(4-((dimethylamino)methyl)-5-hydroxy-1H-indole-2-carbonyl)benzofuran-5-yl)urea 2,2,2-trifluoroacetate]",Solubility Ethanol,"[1]; 2,2,2-trifluoroacetate",5940 µg/mL
same,Solubility Water,"[1]; 2,2,2-trifluoroacetate",<100 µg/mL
same,IC50,[2],0.02 nM
same,Solubility DMSO,[7],Soluble
same,IC50,[3],0.00065 µM
same,IC50,[4],0.0002 µM
same,IC50,[5],0.00074 µM
same,IC50,human FLT3-ITD,3.1 nM
same,IC50,c-KIT,1.8 nM
same,IC50,[6],0.1 µM
"CN(C)Cc1c(O)ccc2[nH]c(C(=O)c3cc4cc(NC(=O)Nc5cc(C(C)(C)C)on5)ccc4o3)cc12 [Compound 34c, 1-(5-(tert-Butyl)isoxazol-3-yl)-3-(2-(4-(dimethylamino)methyl)-5-hydroxy-1H-indole-2-carbonyl)benzofuran-5-yl)urea Hydrochloride]",first death (day of study),[8]; 20 mg/kg po daily 5 days,9 days
same,study day after which 1 mouse had to be sacrificed,[8]; 20 mg/kg po daily 5 days (treatment group 2),20 days
same,"number of living subjects, day of study 5",[8]; 20 mg/kg po daily 5 days,5
same,"number of living subjects, day of study 6",[8]; 20 mg/kg po daily 5 days,5
same,"number of living subjects, day of study 8",[8]; 20 mg/kg po daily 5 days,5
same,"number of living subjects, day of study 13",[8]; 20 mg/kg po daily 5 days,4
same,"number of living subjects, day of study 26",[8]; 20 mg/kg po daily 5 days,4
same,"number of living subjects, day of study 36",[8]; 20 mg/kg po daily 5 days,0
same,"relative tumor volume, compared with reference compounds","[8]; 20 mg/kg po daily 5 days, Midostaurin 50 mg/kg, Hydrochloride",better results regarding tumor volume measurements than Midostaurin; also recorded: higher efficiency than midostaurin
same,"number of living subjects, day of study 5",[8]; 50 mg/kg po daily 5 days,5
same,"number of living subjects, day of study 6",[8]; 50 mg/kg po daily 5 days,5
same,"number of living subjects, day of study 8",[8]; 50 mg/kg po daily 5 days,5
same,"number of living subjects, day of study 13",[8]; 50 mg/kg po daily 5 days,5
same,"number of living subjects, day of study 26",[8]; 50 mg/kg po daily 5 days,5
same,"number of living subjects, day of study 36",[8]; 50 mg/kg po daily 5 days,5
same,deaths until day 36,"[8]; 50 mg/kg po daily 5 days, Hydrochloride",No deaths were observed; also recorded: no deaths were noted
same,"relative tumor volume, compared with reference compounds","[8]; 50 mg/kg po daily 5 days, references 50 mg/kg, Hydrochloride",similarly active as Quizartinib; also recorded: much more active than Midostaurin; also recorded: significantly increased efficiency of 34c compared to midostaurin; also recorded: comparable to the efficiency of quizartinib at the same dose
same,efficacy and tolerability in terms of overall survival / death counts,"[8]; 34c 20 and 50 mg/kg, references 50 mg/kg, po daily 5 days, Hydrochloride",better tolerated; also recorded: significantly better efficacy and tolerability in terms of overall survival than midostaurin; also recorded: significantly better efficiency and tolerability (in terms of overall survival) than quizartinib
same,relative body weight loss,"[8]; po daily 5 days, 34c 20 and 50 mg/kg, Midostaurin and Quizartinib 50 mg/kg",less relative body weight loss
same,Solubility Ethanol,[1]; Hydrochloride,2380 µg/mL
same,Solubility Water,[1]; Hydrochloride,5770 µg/mL
same,clinical signs,[9]; 20 mg/kg and 50 mg/kg po treatment groups,no clinical signs observed
same,clinical signs,"[9]; 75 mg/kg po, the mouse which lost weight, noticed only after dosing, considered not caused by the compound",swelling of the right hind limb and foot
same,possible (tolerated) dose according to tolerability study,"[9]; female, NOD/SCID, mouse, in vivo, po, 5 days",up to 75 mg/kg
same,body weight loss in the dosing phase,"[9]; one mouse in the 50 mg/kg po group and one in the 75 mg/kg po group, daily, 5 days",> 10%
